The values that follow come from ChEMBL document CHEMBL4602678, “Identification of Holrhizins E-Q Reveals the Diversity of Nonribosomal Lipopeptides in Paraburkholderia rhizoxinica” (J Nat Prod, 2020).

The subject of one assay is Escherichia coli. Briefly: Antimicrobial activity against Escherichia coli ATCC 35218 incubated for 24 hrs by Kirby-Bauer disk diffusion method. It counts as functional. The note with it: ATCC 35218, 24 h. A general note: Agar diffusion results depend on both activity and mobility in agar.
In the next assay the test system is Pseudomonas aeruginosa. Briefly: Antimicrobial activity against Pseudomonas aeruginosa […] ATCC 27853 incubated for 24 hrs by Kirby-Bauer disk diffusion method. Format: functional.
The test system of a further assay is Staphylococcus aureus. Description: Antimicrobial activity against Staphylococcus aureus ATCC 29213 incubated for 24 hrs by Kirby-Bauer disk diffusion method. The note with it: ATCC 29213, 24 h. Format: functional.
In a further assay the test system is Bacillus subtilis. Description: Antimicrobial activity against Bacillus subtilis ATCC 6633 incubated for 24 hrs by Kirby-Bauer disk diffusion method. It counts as functional. The settings on record: ATCC 6633, 24 h.
The subject of a further assay is Candida albicans. Briefly: Antimicrobial activity against Candida albicans incubated for 24 hrs by Kirby-Bauer disk diffusion method. Format: functional.
For the next assay, the system named is Rhizoctonia solani. Briefly: Antimicrobial activity against Rhizoctonia solani incubated for 24 hrs by Kirby-Bauer disk diffusion method. It counts as functional.
A further assay concerns Aspergillus fumigatus. Description: Antimicrobial activity against Aspergillus fumigatus incubated for 24 hrs by Kirby-Bauer disk diffusion method. Format: functional.
The test system of another assay is K562. Briefly: Cytotoxicity against human K562 cells incubated for 2 days by MTT assay. The note with it: K562, 48 h. Format: functional, cell-based. (In general: Tetrazolium assays rely on reduction of a dye to a coloured formazan, in cell work by metabolically active cells.)
The next assay has as its system MCF7. Briefly: Cytotoxicity against human MCF7 cells incubated for 2 days by MTT assay. Format: functional, cell-based. The settings on record: MCF7, 48 h.
The subject of a further assay is MDA-MB-231. Description: Cytotoxicity against human MDA-MB-231 cells incubated for 2 days by MTT assay. It counts as functional, cell-based. The settings on record: MDA-MB-231, 48 h.
The next assay has as its system HepG2. Description: Cytotoxicity against human HepG2 cells incubated for 2 days by MTT assay. Format: functional, cell-based. The note with it: HepG2, 48 h.
The nature of assay [1]: Cytotoxicity against human 2B cells incubated for 2 days by MTT assay. It counts as cell-based. The settings on record: 48 h.
The next assay concerns A549. Briefly: Cytotoxicity against human A549 cells incubated for 2 days by MTT assay. Format: functional, cell-based. The settings on record: A549, 48 h.
A further assay concerns SGC-7901. Description: Cytotoxicity against human SGC7901 cells incubated for 2 days by MTT assay. The settings on record: SGC-7901, 48 h. Format: functional, cell-based.
The next assay has as its system HCT-116. Briefly: Cytotoxicity against human HCT116 cells incubated for 2 days by MTT assay. Format: functional, cell-based. The settings on record: HCT-116, 48 h.
Assay [2] in a line: Cytotoxicity against human Kasumi cells incubated for 2 days by MTT assay. It counts as functional, cell-based. The note with it: 48 h.

By MIC is commonly meant the smallest concentration in the dilution series that meets the test's criterion for growth inhibition. A lower MIC goes with a more susceptible organism. As a reminder, the IC50 is the concentration needed to halve the response being measured. A higher IC50 goes with a need for much substance.

Where a SMILES comes first, the peptide text is derived from it. The star is where a group is joined. Octanoyl = CCCCCCCC(=O)*

Take `CCCCCCCC(=O)N[C@H](C(=O)N[C@@H](Cc1ccccc1)C(=O)N[C@@H](CCC(=O)O)C(=O)N[C@@H](CC(C)C)C(=O)N[C@@H](C)C(=O)N[C@H](C(=O)O)[C@@H](C)CC)C(C)C` (Octanoyl-VFELAI-OH): the MIC with Escherichia coli, with Pseudomonas aeruginosa, with Staphylococcus aureus, against Bacillus subtilis, against Candida albicans and in the assay on Rhizoctonia solani was greater than 100 µM in each case. Further, the minimum inhibitory concentration (MIC) against Aspergillus fumigatus is greater than 100 µM. The IC50 (with K562; with MCF7; in the assay with MDA-MB-231; in the assay with HepG2; in [1]; in the assay with A549) was greater than 40 µM each time. Besides, the half-inhibitory concentration (IC50) (with SGC-7901; with HCT-116; in assay [2]) was greater than 40 µM in each case.

`CCCCCCCC(=O)N[C@H](C(=O)N[C@@H](Cc1ccccc1)C(=O)N[C@@H](CCC(=O)O)C(=O)N[C@@H](CC(C)C)C(=O)N[C@@H](C)C(=O)N[C@@H](CC(C)C)C(=O)O)C(C)C` (Octanoyl-VFELAL-OH): the minimum inhibitory concentration (MIC) against Escherichia coli, with Pseudomonas aeruginosa, against Staphylococcus aureus, in the assay with Bacillus subtilis, in the assay on Candida albicans and with Rhizoctonia solani was greater than 100 µM throughout. For the same compound, the minimum inhibitory concentration (MIC) with Aspergillus fumigatus was greater than 100 µM. Further, the 50% inhibitory concentration (IC50) (in the assay with K562; in the assay with MCF7; in the assay on MDA-MB-231; in the assay with HepG2; in assay [1]; with A549) was greater than 40 µM each time. The IC50 (in the assay on SGC-7901; in the assay on HCT-116; in assay [2]) was greater than 40 µM throughout.

As for `CCCCCCCC(=O)N[C@H](C(=O)N[C@@H](Cc1ccccc1)C(=O)N[C@@H](CCC(=O)O)C(=O)N[C@@H](CC(C)C)C(=O)N[C@@H](C)C(=O)N[C@H](C(=O)O)C(C)C)C(C)C` (Octanoyl-VFELAV-OH), the MIC against Escherichia coli, in the assay with Pseudomonas aeruginosa, against Staphylococcus aureus, in the assay on Bacillus subtilis, against Candida albicans and in the assay with Rhizoctonia solani was greater than 100 µM each time. In the assay on Aspergillus fumigatus, this compound yielded an MIC greater than 100 µM. For the same compound, the IC50 (with K562; in the assay with MCF7; with MDA-MB-231; in the assay on HepG2; in assay [1]; with A549) was greater than 40 µM throughout. Also, the IC50 (in the assay on SGC-7901; in the assay with HCT-116; in [2]) was greater than 40 µM throughout.

Turning to `CCCCCCCC(=O)N[C@H](C(=O)N[C@@H](Cc1ccccc1)C(=O)O)C(C)C` (Octanoyl-Val-Phe-OH), the minimal inhibitory concentration (MIC) against Escherichia coli, with Pseudomonas aeruginosa, against Staphylococcus aureus, against Bacillus subtilis, in the assay on Candida albicans and in the assay with Rhizoctonia solani was greater than 100 µM in each case. For the same compound, the minimal inhibitory concentration (MIC) against Aspergillus fumigatus was greater than 100 µM. Also, the 50% inhibitory concentration (IC50) (in the assay with K562; in the assay on MCF7; in the assay on MDA-MB-231; in the assay with HepG2; in [1]; with A549) was greater than 40 µM each time. The 50% inhibitory concentration (IC50) (in the assay with SGC-7901; in the assay with HCT-116; in assay [2]) was greater than 40 µM in each case.
